Experimental data as given in ChEMBL document CHEMBL1158561, “Synthesis of 4-(3-biaryl)quinoline sulfones as potent liver X receptor agonists” (Bioorg Med Chem Lett, 2010).

Key:
[1] = system: HepG2; experiment: cells; conditions: Homo sapiens
[2] = Half life in rat liver microsome; assay type: ADME; conditions: liver microsomes
[3] = system: J774; experiment: cells; conditions: Mus musculus
[4] = system: Huh-7; experiment: Upregulation of SREB1c mRNA level in human HuH7 cells; assay type: functional, cell-based
[5] = Half life in human liver microsome; assay type: ADME; conditions: liver microsomes
[6] = target: T1, Oxysterols receptor LXR-alpha (Homo sapiens, UniProt Q13133); experiment: Displacement of [3H]T0901317 from LXRalpha ligand binding domain
T1 sequence (Q13133 whole entry): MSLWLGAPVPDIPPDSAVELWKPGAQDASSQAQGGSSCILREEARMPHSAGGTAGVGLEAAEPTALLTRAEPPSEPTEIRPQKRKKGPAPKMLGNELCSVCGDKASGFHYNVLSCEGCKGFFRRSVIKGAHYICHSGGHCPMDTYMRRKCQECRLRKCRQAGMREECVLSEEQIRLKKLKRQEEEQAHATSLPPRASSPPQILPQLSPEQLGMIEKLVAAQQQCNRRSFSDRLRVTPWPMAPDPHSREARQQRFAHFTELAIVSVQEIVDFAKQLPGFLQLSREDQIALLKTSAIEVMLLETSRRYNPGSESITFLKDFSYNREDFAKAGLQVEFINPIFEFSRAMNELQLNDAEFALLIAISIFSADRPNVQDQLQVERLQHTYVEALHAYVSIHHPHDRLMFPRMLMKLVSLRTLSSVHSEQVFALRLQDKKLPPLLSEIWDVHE

[7] = AUC (0 to infinity) in C57 mouse at 10 mg/kg, po; assay type: ADME, organism-based; set-up: time infinity, dose 10 mg/kg, route oral; conditions: plasma
[8] = Tmax in C57 mouse at 10 mg/kg, po; assay type: ADME, organism-based; set-up: dose 10 mg/kg, route oral; conditions: in vivo
[9] = Cmax in C57 mouse at 10 mg/kg, po; assay type: ADME, organism-based; set-up: dose 10 mg/kg, route oral; conditions: in vivo
[10] = Half life in C57 mouse at 10 mg/kg, po; assay type: ADME, organism-based; set-up: dose 10 mg/kg, route oral; conditions: in vivo
[11] = Oral bioavailability in C57 mouse at 10 mg/kg; assay type: ADME, organism-based; conditions: in vivo
[12] = target: Oxysterols receptor LXR-beta (Homo sapiens, UniProt P55055); experiment: Displacement of [3H]T0901317 from LXRbeta ligand binding domain
Sequence of Oxysterols receptor LXR-beta (P55055 whole entry, the tested form may be a part): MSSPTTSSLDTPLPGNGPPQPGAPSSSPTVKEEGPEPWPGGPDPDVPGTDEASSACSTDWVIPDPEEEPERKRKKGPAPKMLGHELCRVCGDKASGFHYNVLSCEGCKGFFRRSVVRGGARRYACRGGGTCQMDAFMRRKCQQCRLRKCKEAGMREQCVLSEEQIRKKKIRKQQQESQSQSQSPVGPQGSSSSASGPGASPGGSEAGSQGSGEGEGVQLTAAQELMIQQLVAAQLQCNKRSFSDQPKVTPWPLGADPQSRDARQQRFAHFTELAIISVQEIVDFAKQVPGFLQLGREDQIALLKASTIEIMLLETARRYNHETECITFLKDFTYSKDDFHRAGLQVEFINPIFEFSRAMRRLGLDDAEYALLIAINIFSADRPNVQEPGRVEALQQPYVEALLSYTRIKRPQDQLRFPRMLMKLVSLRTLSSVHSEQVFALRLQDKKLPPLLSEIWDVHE

Row | EC50 [1] | half-life [2] | EC50 [3] | EC50 [4] | half-life [5] | Structure (SMILES) | further results
1 | 23 nM | > 30 min | 23 nM | 52 nM | – | Cc1cnc2c(C(F)(F)F)cccc2c1-c1cccc(-c2cccc(S(C)(=O)=O)c2)c1 | –
2 | – | > 30 min | – | – | > 30 min | Cc1cnc2c(C(F)(F)F)cccc2c1-c1cccc(-c2ccc(S(C)(=O)=O)cc2)c1 | IC50 [6]: > 1000 nM
3 | 77 nM | > 30 min | 77 nM | 440 nM | > 30 min | CS(=O)(=O)c1cccc(-c2cccc(-c3ccnc4c(C(F)(F)F)cccc34)c2)c1 | AUC(0-inf) [7]: 3010 ng·h/mL; Tmax [8]: 60 min; Cmax [9]: 106 ng/mL; half-life [10]: 834 min; bioavailability [11]: 100%
4 | – | > 30 min | – | – | > 30 min | CS(=O)(=O)c1ccc(-c2cccc(-c3ccnc4c(C(F)(F)F)cccc34)c2)cc1 | IC50 [12]: > 1000 nM; IC50 [6]: > 1000 nM
5 | 0.4 nM | > 30 min | 0.4 nM | 8 nM | > 30 min | CCCc1cnc2c(C(F)(F)F)cccc2c1-c1cccc(-c2cccc(S(C)(=O)=O)c2)c1 | –
6 | 133 nM | > 30 min | 11 nM | 132 nM | > 30 min | CS(=O)(=O)c1cc(-c2cccc(-c3ccnc4c(C(F)(F)F)cccc34)c2)c(F)cc1F | –
7 | – | 19 min | – | – | > 30 min | Cc1cnc2c(C(F)(F)F)cccc2c1-c1cccc(-c2ccc(F)c(S(C)(=O)=O)c2)c1 | –
8 | – | > 30 min | – | – | > 30 min | Cc1cnc2c(C(F)(F)F)cccc2c1-c1cccc(-c2cc(S(C)(=O)=O)c(F)cc2F)c1 | –
9 | 41 nM | 12 min | 140 nM | – | > 30 min | CS(=O)(=O)c1cc(-c2cccc(-c3ccnc4c(C(F)(F)F)cccc34)c2)ccc1F | –
10 | 0.5 nM | > 30 min | 0.5 nM | 6 nM | > 30 min | CC(C)c1cnc2c(C(F)(F)F)cccc2c1-c1cccc(-c2cccc(S(C)(=O)=O)c2)c1 | –
11 | – | 16 min | – | – | – | CS(=O)(=O)c1cccc(-c2cccc(-c3c(Cc4ccccc4)cnc4c(C(F)(F)F)cccc34)c2)c1 | –
12 | 571 nM | 7 min | 571 nM | 571 nM | 27 min | CS(=O)(=O)c1ccc(-c2cccc(-c3c(Cc4ccccc4)cnc4c(C(F)(F)F)cccc34)c2)cc1 | –
13 | 0.7 nM | > 30 min | 0.7 nM | 8 nM | > 30 min | CCc1cnc2c(C(F)(F)F)cccc2c1-c1cccc(-c2cccc(S(C)(=O)=O)c2)c1 | –
14 | 156 nM | > 30 min | 156 nM | 521 nM | > 30 min | CCS(=O)(=O)c1cccc(-c2cccc(-c3ccnc4c(C(F)(F)F)cccc34)c2)c1 | –
15 | 190 nM | > 30 min | 190 nM | 250 nM | > 30 min | CCS(=O)(=O)c1cccc(-c2cccc(-c3c(C)cnc4c(C(F)(F)F)cccc34)c2)c1 | –
16 | – | 27 min | – | – | > 30 min | Cc1ccc(-c2cccc(-c3c(C)cnc4c(C(F)(F)F)cccc34)c2)cc1S(C)(=O)=O | –
17 | – | – | – | – | > 30 min | COc1ccc(-c2cccc(-c3c(C)cnc4c(C(F)(F)F)cccc34)c2)cc1S(C)(=O)=O | IC50 [6]: > 1000 nM
18 | 107 nM | > 30 min | – | 36 nM | > 30 min | O=S(=O)(c1ccccc1)N(CC(F)(F)F)c1ccc(C(O)(C(F)(F)F)C(F)(F)F)cc1 [T091317] | –
